Laboratory results from patent US20250051694A1, “BAR COMPOSITION HAVING ENHANCED ANTIMICROBIAL ACTIVITY” (Conopco, Inc., d/b/a UNILEVER, priority 2021, published 2025).

Test system: S. aureus ATCC 6538
Experiment: Time-kill assay (adapted from ASTM E2315-16), Gram positive
Type: cell-based
Settings: Table II, simulated 10% slurry
Procedure: Aqueous slurries were prepared whereby gratings from the bars made in the Samples of Table I were mixed with water to form a test solution containing 10% by weight of the initial bar component. In the second method, raw bar components, as depicted in the Samples in Table II, were mixed with water to form a test solution containing a total of 10% raw bar component to simulate an aqueous slurry of a bar composition. For each sample, aqueous slurries were mixed at 50° C. to simulate customary consumer washing conditions.
As to the microbes, E. coli ATCC 10536 and S. aureus ATCC 6538 were used in this study to represent Gram negative and Gram positive bacteria, respectively. The bacteria were stored at −80° C. Fresh isolates were cultured twice on Tryptic Soy Agar plates for 24 hours at 37° C. before each experiment.
Test solutions were prepared. In the first method and for the aqueous slurries made from the bar compositions described in Table I, a composition (typically containing up to 15% surfactant) was mixed with water to form a test solution containing 10% weight percent of the initial formulation. In the second method and for the raw ingredients combined in Table II, the same were mixed with water at levels that simulate a 10% dilution of the slurries. In each assessment, test solutions were heated and mixed at […]
The log reduction was calculated using the formula: […]

CC(O)C(=O)O (stereo not shown) [lactic acid]
S. aureus Log Reduction (46° C., 30 sec): performed poorly
